The target of one test is GLP1R (Homo sapiens, UniProt P43220). Briefly: hGLP1R potency, cAMP accumulation in CHO-K1 cells stably overexpressing hGLP1R. It counts as cell-based. Set-up: host or cells: CHO-K1. Conditions: for Selectivity: SCTR EC50/GLP1R EC50 ratio; for EC50: read-out: PEC50 hGLPR1 (converted). An excerpt: (§1) Crude library peptides are screened in 10-fold serial dilutions of 5 concentrations, n=1 time. Tip change is done for the first two serial dilutions. Compound starting concentration (top) will be adjusted throughout the study if needed.
Sequence of GLP1R (P43220 24-463): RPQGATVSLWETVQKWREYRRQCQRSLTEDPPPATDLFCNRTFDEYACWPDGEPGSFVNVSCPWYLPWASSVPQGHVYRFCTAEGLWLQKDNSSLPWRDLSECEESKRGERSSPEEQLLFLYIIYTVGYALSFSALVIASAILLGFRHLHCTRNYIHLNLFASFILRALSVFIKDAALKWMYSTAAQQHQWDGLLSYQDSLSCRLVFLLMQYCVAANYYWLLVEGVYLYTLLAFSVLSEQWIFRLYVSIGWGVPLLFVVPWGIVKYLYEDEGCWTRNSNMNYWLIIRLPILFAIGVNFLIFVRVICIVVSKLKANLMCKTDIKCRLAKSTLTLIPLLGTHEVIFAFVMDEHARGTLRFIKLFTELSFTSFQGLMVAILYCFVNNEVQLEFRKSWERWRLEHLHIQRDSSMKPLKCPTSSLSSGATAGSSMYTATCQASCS
(§2) Purified peptides are screened in 3-fold serial dilutions of 11 concentrations, n=2 times. Tip change is done for all serial dilutions. Compound starting concentration (top) will be adjusted throughout the study. If the top concentration is adjusted or a 5-fold difference in calculated EC50 values is observed, n is increased by 1. EC50 values were calculated by nonlinear regression using sigmoid concentration-response with variable slope.
(§3) A CHO-K1 cell line stably overexpressing the hGLP1R was obtained from Euroscreen (FAST-0145L), expanded, aliquoted and frozen. An aliquot was thawed and plated in DPBS with 0.05% casein and 0.5 mM IBMX as 2000 cells/well in a 384-well format. The cells were then immediately stimulated for 30 min at room temperature with graded doses of test compound using human GLP-1(7-36) (synthesized at Gubra) as a positive control. cAMP accumulation was measured using a Cisbio assay for Gs coupled receptors (cat. no. 62AM4PEC), where the assay reagents were added as per the manufacturer's instructions and time-resolved fluorescence energy transfer recorded after one hour on a CLARIOstar (BMG Labtech) plate reader.
On the technique in general: Changes in cAMP serve as a functional read-out for many G protein-coupled receptors.

The target in the next test is SCTR (Homo sapiens, UniProt P47872). Briefly: hSCTR potency, cAMP accumulation in CHO-K1 cells stably overexpressing hSCTR. On the set-up: alternatively Euroscreen ES-712-AF; FAST-0161L; host or cells: CHO-K1. Format: cell-based. Particulars: Table 2, extended 30 amino acid peptides; read-out: pEC50 hSCTR (converted).
Sequence of SCTR (P47872 23-440): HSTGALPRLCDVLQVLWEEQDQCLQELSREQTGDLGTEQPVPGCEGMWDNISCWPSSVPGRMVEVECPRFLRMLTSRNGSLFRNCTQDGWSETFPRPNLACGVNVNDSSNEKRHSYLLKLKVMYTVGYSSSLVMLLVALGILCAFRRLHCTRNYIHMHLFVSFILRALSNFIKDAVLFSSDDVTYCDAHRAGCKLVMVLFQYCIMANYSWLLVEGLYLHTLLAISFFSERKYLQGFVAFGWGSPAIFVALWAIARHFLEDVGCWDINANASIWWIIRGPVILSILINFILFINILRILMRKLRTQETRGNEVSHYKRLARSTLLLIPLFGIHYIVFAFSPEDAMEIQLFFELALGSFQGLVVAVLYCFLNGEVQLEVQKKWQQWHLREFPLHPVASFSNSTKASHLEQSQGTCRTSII
Source text: as §1, §2
as §3, with “Frozen division arrested CHO-K1 cells stably overexpressing the hSCTR were obtained from PerkinElmer (ES-712-AF). Alternatively, a CHO-K1” for “A CHO-K1”, “the hSCTR” for “the hGLP1R”, “Euroscreen (FAST-0161L),” for “Euroscreen (FAST-0145L),”, “human secretin” for “human GLP-1(7-36)”

Where [1] appears, read: Table 2, extended 30 amino acid peptides.
[2] abbreviates: Table 3, position X^10 variants of GUB06-046.

Numbered stars: 1 amine (or outer) side, 2 acyl side, 3 side chain; on linkers, the order of the positions; unused ones are H or OH. Square brackets hold non-standard residues; d marks the D form. Side chains are listed from the residue outwards. Peptide text beside a SMILES is read from it. * marks the point of attachment. C18 diacid = O=C(O)CCCCCCCCCCCCCCCCC(=O)*; γGlu = O=C(O)[C@H](CCC(=O)[*:2])N[*:1]; AEEA = NCCOCCOCC(=O)O; Aib = CC(C)(N)C(=O)O

Regarding `CC(C)C[C@H](NC(=O)[C@H](Cc1ccccc1)NC(=O)[C@H](CCCNC(=N)N)NC(=O)[C@H](CCC(N)=O)NC(=O)[C@H](CCC(=O)O)NC(=O)[C@H](C)NC(=O)[C@H](C)NC(=O)CNC(=O)[C@H](CCC(=O)O)NC(=O)[C@H](CCCCNC(=O)COCCOCCNC(=O)COCCOCCNC(=O)CC[C@H](NC(=O)CCCCCCCCCCCCCCCCC(=O)O)C(=O)O)NC(=O)[C@H](CC(C)C)NC(=O)[C@H](CCCNC(=N)N)NC(=O)[C@H](CO)NC(=O)[C@@H](NC(=O)[C@H](CC(=O)O)NC(=O)[C@H](CO)NC(=O)[C@@H](NC(=O)[C@H](Cc1ccccc1)NC(=O)[C@@H](NC(=O)CNC(=O)[C@H](CCC(=O)O)NC(=O)C(C)(C)NC(=O)[C@@H](N)Cc1c[nH]cn1)[C@@H](C)O)[C@@H](C)O)C(C)C)C(=O)N[C@@H](CCC(N)=O)C(=O)N[C@@H](Cc1c[nH]cn1)C(=O)N[C@@H](CC(C)C)C(=O)N[C@H](C(=O)N[C@@H](CCC(=O)O)C(=O)N[C@@H](C)C(=O)N[C@@H](CCC(=O)O)C(N)=O)C(C)C` [compound 204] (H-H[Aib]EGTFTSDVSRLK([AEEA-AEEA-γGlu-C18 diacid])EGAAEQRFLQHLVEAE-NH2), the Selectivity at GLP1R (setting [1]) was determined as 285714. For the same compound, the results for the EC50 at GLP1R (setting [1]) and at SCTR were 10 pM and 2.51 µM, respectively.
Take `CC(C)C[C@H](NC(=O)[C@H](Cc1ccccc1)NC(=O)[C@H](CCCNC(=N)N)NC(=O)[C@H](CCC(N)=O)NC(=O)[C@H](CCC(=O)O)NC(=O)[C@H](C)NC(=O)[C@H](C)NC(=O)CNC(=O)[C@H](CCC(=O)O)NC(=O)[C@H](CCCCNC(=O)COCCOCCNC(=O)COCCOCCNC(=O)CC[C@H](NC(=O)CCCCCCCCCCCCCCCCC(=O)O)C(=O)O)NC(=O)[C@H](CC(C)C)NC(=O)[C@H](CCCNC(=N)N)NC(=O)[C@H](CO)NC(=O)[C@@H](NC(=O)[C@H](CC(=O)O)NC(=O)[C@H](CO)NC(=O)[C@@H](NC(=O)[C@H](Cc1ccccc1)NC(=O)[C@@H](NC(=O)CNC(=O)[C@H](CCC(=O)O)NC(=O)C(C)(C)NC(=O)[C@@H](N)Cc1c[nH]cn1)[C@@H](C)O)[C@@H](C)O)C(C)C)C(=O)N[C@@H](CCC(N)=O)C(=O)N[C@@H](Cc1c[nH]cn1)C(=O)N[C@@H](CC(C)C)C(=O)N[C@H](C(=O)N[C@@H](C)C(=O)N[C@@H](C)C(=O)N[C@@H](CCC(=O)O)C(N)=O)C(C)C` [compound 206] (H-H[Aib]EGTFTSDVSRLK([AEEA-AEEA-γGlu-C18 diacid])EGAAEQRFLQHLVAAE-NH2): at GLP1R (setting [1]), the Selectivity turned out to be 312500 and the EC50 was 15.8 pM. For the same compound, the EC50 on SCTR is 5.01 µM.
`CC[C@H](C)[C@H](NC(=O)[C@H](Cc1ccccc1)NC(=O)[C@H](CCCNC(=N)N)NC(=O)[C@H](CCC(N)=O)NC(=O)[C@H](CC(C)C)NC(=O)[C@H](C)NC(=O)[C@H](C)NC(=O)CNC(=O)[C@H](CCC(=O)O)NC(=O)[C@H](CC(C)C)NC(=O)[C@H](CC(C)C)NC(=O)[C@H](CCCNC(=N)N)NC(=O)[C@H](CO)NC(=O)[C@H](Cc1ccc(O)cc1)NC(=O)[C@H](CC(=O)O)NC(=O)[C@H](CO)NC(=O)[C@@H](NC(=O)[C@H](Cc1ccccc1)NC(=O)[C@@H](NC(=O)CNC(=O)[C@H](CCC(=O)O)NC(=O)C(C)(C)NC(=O)[C@@H](N)Cc1c[nH]cn1)[C@@H](C)O)[C@@H](C)O)C(=O)N[C@@H](CCC(N)=O)C(=O)N[C@@H](Cc1c[nH]c2ccccc12)C(=O)N[C@@H](CC(C)C)C(=O)N[C@H](C(N)=O)C(C)C` [compound 217] (H-H[Aib]EGTFTSDYSRLLEGAALQRFIQWLV-NH2): the Selectivity on GLP1R (setting [2]) was found to be 114.
Still for that read-out and setting: with `CC[C@H](C)[C@H](NC(=O)[C@H](Cc1ccccc1)NC(=O)[C@H](CCCNC(=N)N)NC(=O)[C@H](CCC(N)=O)NC(=O)[C@H](CC(C)C)NC(=O)[C@H](C)NC(=O)[C@H](C)NC(=O)CNC(=O)[C@H](CCC(=O)O)NC(=O)[C@H](CC(C)C)NC(=O)[C@H](CC(C)C)NC(=O)[C@H](CCCNC(=N)N)NC(=O)[C@H](CO)NC(=O)[C@@H](NC(=O)[C@H](CC(=O)O)NC(=O)[C@H](CO)NC(=O)[C@@H](NC(=O)[C@H](Cc1ccccc1)NC(=O)[C@@H](NC(=O)CNC(=O)[C@H](CCC(=O)O)NC(=O)C(C)(C)NC(=O)[C@@H](N)Cc1c[nH]cn1)[C@@H](C)O)[C@@H](C)O)[C@@H](C)CC)C(=O)N[C@@H](CCC(N)=O)C(=O)N[C@@H](Cc1c[nH]c2ccccc12)C(=O)N[C@@H](CC(C)C)C(=O)N[C@H](C(N)=O)C(C)C` [compound 218] (H-H[Aib]EGTFTSDISRLLEGAALQRFIQWLV-NH2) the figure was 459.
Same read-out and setting: with `CC[C@H](C)[C@H](NC(=O)[C@H](Cc1ccccc1)NC(=O)[C@H](CCCNC(=N)N)NC(=O)[C@H](CCC(N)=O)NC(=O)[C@H](CC(C)C)NC(=O)[C@H](C)NC(=O)[C@H](C)NC(=O)CNC(=O)[C@H](CCC(=O)O)NC(=O)[C@H](CC(C)C)NC(=O)[C@H](CC(C)C)NC(=O)[C@H](CCCNC(=N)N)NC(=O)[C@H](CO)NC(=O)[C@H](Cc1c[nH]c2ccccc12)NC(=O)[C@H](CC(=O)O)NC(=O)[C@H](CO)NC(=O)[C@@H](NC(=O)[C@H](Cc1ccccc1)NC(=O)[C@@H](NC(=O)CNC(=O)[C@H](CCC(=O)O)NC(=O)C(C)(C)NC(=O)[C@@H](N)Cc1c[nH]cn1)[C@@H](C)O)[C@@H](C)O)C(=O)N[C@@H](CCC(N)=O)C(=O)N[C@@H](Cc1c[nH]c2ccccc12)C(=O)N[C@@H](CC(C)C)C(=O)N[C@H](C(N)=O)C(C)C` [compound 219] (H-H[Aib]EGTFTSDWSRLLEGAALQRFIQWLV-NH2) the figure was 478; with `CC[C@H](C)[C@H](NC(=O)[C@H](Cc1ccccc1)NC(=O)[C@H](CCCNC(=N)N)NC(=O)[C@H](CCC(N)=O)NC(=O)[C@H](CC(C)C)NC(=O)[C@H](C)NC(=O)[C@H](C)NC(=O)CNC(=O)[C@H](CCC(=O)O)NC(=O)[C@H](CC(C)C)NC(=O)[C@H](CC(C)C)NC(=O)[C@H](CCCNC(=N)N)NC(=O)[C@H](CO)NC(=O)[C@@H](NC(=O)[C@H](CC(=O)O)NC(=O)[C@H](CO)NC(=O)[C@@H](NC(=O)[C@H](Cc1ccccc1)NC(=O)[C@@H](NC(=O)CNC(=O)[C@H](CCC(=O)O)NC(=O)C(C)(C)NC(=O)[C@@H](N)Cc1c[nH]cn1)[C@@H](C)O)[C@@H](C)O)C(C)C)C(=O)N[C@@H](CCC(N)=O)C(=O)N[C@@H](Cc1c[nH]c2ccccc12)C(=O)N[C@@H](CC(C)C)C(=O)N[C@H](C(N)=O)C(C)C` [compound 220] (H-H[Aib]EGTFTSDVSRLLEGAALQRFIQWLV-NH2), 891.
On the same count and under the same terms, under `CC[C@H](C)[C@H](NC(=O)[C@H](Cc1ccccc1)NC(=O)[C@H](CCCNC(=N)N)NC(=O)[C@H](CCC(N)=O)NC(=O)[C@H](CC(C)C)NC(=O)[C@H](C)NC(=O)[C@H](C)NC(=O)CNC(=O)[C@H](CCC(=O)O)NC(=O)[C@H](CC(C)C)NC(=O)[C@H](CC(C)C)NC(=O)[C@H](CCCNC(=N)N)NC(=O)[C@H](CO)NC(=O)[C@@H]1CCCN1C(=O)[C@H](CC(=O)O)NC(=O)[C@H](CO)NC(=O)[C@@H](NC(=O)[C@H](Cc1ccccc1)NC(=O)[C@@H](NC(=O)CNC(=O)[C@H](CCC(=O)O)NC(=O)C(C)(C)NC(=O)[C@@H](N)Cc1c[nH]cn1)[C@@H](C)O)[C@@H](C)O)C(=O)N[C@@H](CCC(N)=O)C(=O)N[C@@H](Cc1c[nH]c2ccccc12)C(=O)N[C@@H](CC(C)C)C(=O)N[C@H](C(N)=O)C(C)C` [compound 221] (H-H[Aib]EGTFTSDPSRLLEGAALQRFIQWLV-NH2) stands 2086.

For the origin of these results see US20260201008A1, “SECRETIN-DERIVED GLP1R SELECTIVE AGONISTS” (GUBRA A/S, priority 2023, published 2026).
